Reference: patent publication US20260115173A1 (University of Houston System, priority 2022, published 2026)
Entries after “also recorded” stand apart in the source; their conditions may differ. Where two headings read alike, the source gives them in different places.

Key:
rats [1] = settings: rat, in vivo; cited from earlier work
mice of both sexes = settings: cited from earlier work
male or female rats = settings: cited from earlier work
[2] = 15-30 mg/kg; cited from earlier work
[3] = system: female Sprague Dawley rats; assay: Operant alcohol (10%) self-administration, FR2 schedule, 60-min sessions; type: in vivo, rat; settings: for Active lever presses, post-hoc comparison with vehicle / Estimated total alcohol intake, post-hoc comparison with vehicle / Number of head entries, comparison with vehicle / Number of reinforcers earned, post-hoc comparison with vehicle: 0.3, 1.0, 3.0 mg/kg IP vs vehicle, decrease, Tukey's test
Source text: (§1) Animals. A total of 10 female Sprague Dawley rats (Charles River, Wilmington, MA) were used for the alcohol self-administration studies. […] These same rats were used in the cFos immunohistochemistry study. Rats were initially housed 3-5 to a cage in polypropylene cages housed in circular towers (Animal Care Systems, Inc, Centennial, CO) located within a temperature- and humidity-controlled vivarium that was maintained on a 12:12 light/dark cycle (lights on at 6 AM). Rats weighed about 250-350 gm at the start of the experiment and were at least 100 days old. Food and water were available ad libitum throughout the study. To facilitate alcohol self-administration rats were exposed to alcohol in vapor chambers (La Jolla Alcohol Research, La Jolla, CA) for 6-weeks prior to operant training using a chronic intermittent alcohol exposure (i.e., alcohol vapors were on for 14-h and off for 10-h, 5 days per week).
Drugs. Alcohol (ethyl alcohol, 190 Proof, USP grade, Koptec, King of Prussia, PA) was diluted to 10% (with RO water, w/v) and made available for consumption via standard operant chambers (described below). MG (Cayman Chemical, Ann Arbor, MI) was prepared in 20% Tween 80 (Sigma Aldrich, St. Louis, MO) in 80% sterile saline (0.9% NaCl). […] Each dose of test drug was administered via intraperitoneal (IP) injection.
Operant self-administration training and testing. Training sessions (60 min) began with the illumination of the house light and, initially, two non-contingent dipper presentations (primes) for 10 sec. The dipper access light was illuminated for the entire length of the dipper presentation time. […] When the rat pressed the active lever, the house light would turn off, dipper would protrude, and the access area light and the triple cue light above both of the levers went off. […] Stable response levels under the FR2 schedule (≤20% variability over 2 consecutive days) under 3 second dipper presentation time were required for the animal to move into the testing phase. Test sessions (60 min) were conducted once a rat met stable lever pressing criteria. Each dose of test drug and vehicle was administered (IP) 30 minutes prior to the test session in a randomized order across rats with at least 4-7 days intervening between dose administrations.
Responses obtained from the test sessions included two measures of appetitive responding (numbers of active lever presses and head entries) and two measures of consummatory responding (numbers of reinforcers earned and estimated amount of alcohol consumed in g/kg). Estimates of the amount of alcohol delivered were derived by multiplying the number of reinforcers earned by the amount of alcohol (g) per delivery (0.1 mL) of the 10% solution and divided by body weight.
Statistical Analysis. The self-administration data were analyzed with ANOVAs to compare the two measures of appetitive responding (numbers of active lever presses and head entries) and the two measures of consummatory responding (numbers of reinforcers earned and estimated total alcohol intake in g/kg).
(§2) Significant main effects were followed by Tukey's multiple comparisons test. Comparisons with p-values less than 0.05 were considered significant and those less than 0.10 were considered a trend towards significance.

male Sprague Dawley rats = settings: cited from earlier work
[4] = system: female Sprague Dawley rats; assay: Open field test - locomotor activity; type: in vivo, rat; settings: N=4/group; for Distance traveled over 5-min time blocks: 3 mg/kg IP 30 min before 30-min test, vs control; for Total distance traveled over entire 30-min session: 3 mg/kg IP 30 min before test
Source text: as §1
Open Field Test-Locomotor Activity. […] Drugs were administered 30 minutes before rats were placed into the open field chambers and distance traveled (cm) was tabulated in 5-min blocks across the 30-minute test.
Distance traveled over time was analyzed using a 4×6 repeated measures ANOVA with time (six 5-min blocks) as the repeating measure. Another ANOVA was conducted that included all three Drug conditions (MG, NTX, and MG+NTX).
as §2

male rats = settings: male Sprague Dawley rats, 10-30 mg/kg ip vs 1, 5, 10 mg/kg i.p.; cited from earlier work
delta opioid receptors [5] = molecular target: T1, delta opioid receptors (Homo sapiens, UniProt P41143); settings: cited from earlier work
mice = settings: i.p., cited from earlier work
delta opioid receptors [6] = molecular target: T1, delta opioid receptors; settings: cited from earlier work; remark: listed apart in the source
cFos [7] = assay: Immunohistochemistry: cFos activation in brain areas; type: in vivo, rat; settings: 3 mg/kg IP, 90 min after open field test, vs control
Source text: as §1

[8] = NTX 1 mg/kg; cited from earlier work
rats [9] = settings: cited from earlier work
delta opioid receptors [10] = molecular target: T2, delta opioid receptors (Mus musculus, UniProt P32300); settings: NG108-15 cells; effect blocked by naloxone; cited from earlier work
T2 construct: endogenous in cells; host or cells: NG108-15

[11] = 15-30 mg/kg; cited from earlier work; remark: listed apart in the source
[12] = system: female Sprague Dawley rats; settings: 10 mg/kg (highest dose), progressive ratio schedule; cited from earlier work
cFos [13] = settings: 2 mg/kg, i.p.; cited from earlier work

T1 sequence (P41143 whole entry): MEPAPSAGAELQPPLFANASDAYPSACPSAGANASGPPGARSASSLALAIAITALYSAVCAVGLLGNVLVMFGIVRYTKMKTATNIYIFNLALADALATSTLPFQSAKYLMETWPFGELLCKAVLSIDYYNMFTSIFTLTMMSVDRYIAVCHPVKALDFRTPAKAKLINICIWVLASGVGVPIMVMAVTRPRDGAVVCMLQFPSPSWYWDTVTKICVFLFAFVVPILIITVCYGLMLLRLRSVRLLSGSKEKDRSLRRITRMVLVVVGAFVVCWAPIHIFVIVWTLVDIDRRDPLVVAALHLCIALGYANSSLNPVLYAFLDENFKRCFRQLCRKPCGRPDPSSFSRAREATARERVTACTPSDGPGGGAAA
T2 sequence (P32300 whole entry): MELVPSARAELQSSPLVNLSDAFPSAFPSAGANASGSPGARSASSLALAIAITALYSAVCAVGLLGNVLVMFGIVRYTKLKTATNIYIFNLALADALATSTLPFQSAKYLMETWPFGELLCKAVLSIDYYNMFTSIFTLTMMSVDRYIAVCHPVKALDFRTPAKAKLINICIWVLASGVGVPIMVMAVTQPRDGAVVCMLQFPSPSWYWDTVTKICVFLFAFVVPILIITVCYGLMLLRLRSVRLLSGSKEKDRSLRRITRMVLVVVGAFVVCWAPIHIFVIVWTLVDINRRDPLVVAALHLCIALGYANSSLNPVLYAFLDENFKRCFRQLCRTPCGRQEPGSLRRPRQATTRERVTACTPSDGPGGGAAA

CC[C@@H]1CN2CC[C@@]3(O)C(=Nc4cccc(OC)c43)[C@@H]2C[C@@H]1/C(=C\OC)C(=O)OC [7-HMG, 7-hydroxymitragynine, reference compound]
Self-administration by rats (rats [1]): readily self-administered by rats
Alcohol consumption (mice of both sexes; dose not given): significantly reduced alcohol consumption as did 7-HMG
Abuse liability in ICSS (male or female rats; rat, in vivo): abuse liability was not shown in ICSS

CC[C@@H]1CN2CCc3c([nH]c4cccc(OC)c34)[C@@H]2C[C@@H]1/C(=C\OC)C(=O)OC [MG, mitragynine]
Substitution for morphine in drug discrimination tests [2]: partially substitute for morphine
Active lever presses, post-hoc comparison with vehicle [3]: significant differences in active lever presses between vehicle and 1.0 (P<0.01) and 3.0 mg/kg (P<0.0001)
Estimated total alcohol intake, post-hoc comparison with vehicle [3]: significant differences between vehicle and 1.0 (P<0.01) and 3.0 mg/kg (P<0.001)
Number of head entries, comparison with vehicle [3]: significant differences between vehicle and 1.0 (P<0.01) and 3.0 mg/kg (P<0.01)
Number of reinforcers earned, post-hoc comparison with vehicle [3]: significant differences between vehicle compared to 1.0 (P<0.05) and 3.0 mg/kg (P<0.0001)
All alcohol self-administration measures (lever presses, head entries, reinforcers, alcohol consumed) ([3]; 0.3-3.0 mg/kg IP): All measures were significantly decreased
Alcohol self-administration overall, relative efficacy of drug conditions ([3]; 0.3-3.0 mg/kg IP, combination vs single drugs): more significant effects on all four measures of alcohol self-administration than NTX
Active lever presses, direct comparison between drug conditions ([3]; MG vs NTX vs MG+NTX at equal doses, 3x4 ANOVA, post-hoc): trend for a greater effect of MG on active lever presses at the 3 mg/kg dose
Heroin self-administration (male Sprague Dawley rats; 3.0 mg/kg): decreased heroin self-administration
Responding when substituted for heroin (male Sprague Dawley rats; 0.03-3.0 mg/kg): did not maintain responding above saline levels
Distance traveled over 5-min time blocks [4]: tend to increase locomotor activity
Total distance traveled over entire 30-min session [4]: did not differ between groups
Locomotor activity (male rats): higher doses (10-30 mg/kg, ip) of MG but not lower doses (1, 5, 10 mg/kg, i.p.) increase locomotor activity
Alcohol consumption (mice of both sexes; 30 and 100 mg/kg, i.p.): significantly reduced alcohol consumption
Activity at receptor (delta opioid receptors [5]): has activity at delta opioid receptors
Spontaneous locomotor activity (mice; 5-30 mg/kg): no effect on spontaneous locomotor activity
Activity (mice; male mice, 5, 10, 15 mg/kg): significant decrease in activity
Binding (delta opioid receptors [6]): very low binding to delta opioid receptors
Number of cFos positive neurons in dorsal striatum (cFos [7]): did not differ from the control group
Decrease of schedule-controlled responding by MG in presence of NTX [8]: did not block MG's ability to decrease schedule-controlled responding
Self-administration when substituted for morphine (rats [9]; broad range of doses, rats trained to self-administer (i.v.) morphine): did not support self-administration
i.v. morphine self-administration after prior exposure (rats [9]; prior exposure): decreases i.v. morphine self-administration
Inhibition of forskolin-stimulated cAMP (delta opioid receptors [10]): inhibits forskolin-stimulated CAMP in a concentration manner
Place conditioning [11]: induce place conditioning
Rewarding effect in ICSS (male or female rats; 3.2-56 mg/kg): did not find evidence that MG (3.2-56 mg/kg) was rewarding

O=C1CC[C@@]2(O)[C@H]3Cc4ccc(O)c5c4[C@@]2(CCN3CC2CC2)[C@H]1O5 [NTX, naltrexone, reference compound]
Active lever presses, post-hoc comparison with vehicle [3]: significant differences in active lever presses between vehicle and 1.0 (P<0.05) and 3.0 mg/kg (P<0.05)
Estimated total alcohol intake, post-hoc comparison with vehicle [3]: significant differences between vehicle and 1.0 (P<0.05) and 3.0 mg/kg (P<0.05)
Number of head entries, comparison with vehicle [3]: trend towards a main effect for Dose
Number of reinforcers earned, post-hoc comparison with vehicle [3]: significant differences between vehicle compared to 1.0 (P<0.05) and 3.0 mg/kg (P<0.05)
All alcohol self-administration measures (lever presses, head entries, reinforcers, alcohol consumed) ([3]; 0.3-3.0 mg/kg IP): All measures were significantly decreased by naltrexone except for head entries that showed a trend towards significance
Active lever presses, reinforcers earned, head entries [12]: decreased active lever presses, reinforcers earned but not head entries
Distance traveled over 5-min time blocks [4]: tend to increase locomotor activity
Total distance traveled over entire 30-min session [4]: did not differ between groups
Number of cFos positive neurons in dorsal striatum (cFos [7]): did not differ from the control group
Number of cFos positive neurons in nucleus accumbens (NAC) (cFos [7]): significant difference between control and NTX (P=0.002); also recorded: increased cFos levels to a similar degree to that of MG and NTX combined
cFos expression (cFos [13]): increases cFos expression in several brain areas including the NAC
